The values that follow come from patent US20140309171A1, “MARKER FOR BLOOD COAGULATION” (Universite Catholique De Louvain, priority 2011, published 2014).

Experiment [1] has as its system Ser79 acetyl-CoA carboxylase (ACC) phosphorylation in human platelets. In words: Western blot of phosphorylated (Ser79) ACC in human platelets. It counts as cell-based. Particulars: isolated washed human platelets treated with the agonist. As to the method:
(§1) Washed human platelets (used in in vitro studies). Platelets were obtained from adult healthy volunteers in accordance with the Ethics Commission of our institution (Commission d'Ethique Biomédicale Hospitalo-Facultaire, Université catholique de Louvain). Whole blood was collected with butterfly needle 21G into Sodium Citrate 1:10 solution (S-monovette). Platelet-rich plasma (PRP) was obtained by 15 min centrifugation at 330 g. The platelets pellet was then washed in Tyrode modified buffer (135 mM NaCl, 12 mM NaHCO3, 1 mM Sodium Citrate, 2.9 mM KCl, 0.3 mM Na2HPO4, 1 mM MgCl2, 5 mM D-glucose, 10 mM Hepes, 0.35% bovine serum albumin (BSA), pH 7.4 at 37° C.) and resuspended to a density of 2.5 10^5 platelets/μl for the measurement of intracellular Ca^2+ or platelet aggregation. For Western Blot analysis, PRP with eptifibatide 4 μg/ml (Integriline, GlaxoSmithKline) and ectonucleotidase apyrase (grade I) 0.5 U/ml was layered over a density barrier of iodixanol (Optiprep®) that allowed the erythrocytes and leucocytes to pellet during centrifugation at 350 g for 15 min. The platelets, because of their small size, sediment much more slowly. After centrifugation at 800 g for 10 min, the resulting pellet was resuspended to a density of 2·10^5 platelets/μl in Tyrode modified buffer before treatment and lysis of samples.
(§2) Proteins were separated as described (Miranda et al. 2010. J Clin Invest 103(6): 879-887). The membranes were probed with the following antibodies: α1/α2 AMPK (Kinasource), phospho-ACC (S79) (1:1000; Cell Signalling), phospho-MLC (S19) (1:10000; Sigma-Aldrich), phospho-VASP (T278) (1:1000; ECM Bioscience), cofilin (Cell Signalling), phospho-cofilin (Ser 3) (Cell Signalling). Bound antibodies were detected by enhanced chemiluminescence (Thermofisher). For each gel, control of loading was realized by immunoblotting using an anti-β-actin (1:10000; Santa Cruz Biotechnology), anti-gelsolin (Santa Cruz Biotechnology) or anti-GAPDH (1:1000; Cell Signalling) antibody after the membranes were stripped. Band intensities were quantified by scanning and processing image intensities with the program ImageJ (1.33 for Mac OS X). The quantification of immunoblots presented in results was obtained after normalization using the internal loading control.
Platelets were isolated from human blood samples as described in the experimental procedures. The isolated platelets were treated with increasing doses of thrombin (0.01, 0.03, 0.1, 0.3 and 1 U/ml), the thromboxane A2 (TXA2) receptor agonist U46619 (0.1, 0.3, 1, 3 and 10 μM), collagen (0.5, 1, 2.5, 5 and 10 μg/ml) or ADP (2.5, 5, 10, 25 nd 50 μM) for 1 min. Following treatment, the platelets were lysed and subjected to Western blotting for determining phosphorylation of Ser79 of ACC.

Experiment [2] concerns blood coagulation. In words: Activated partial thromboplastin time (aPTT) in cardiac surgery patients. Type of experiment: in vivo, human. As to the method:
(§3) A blood sample was drawn during CPB. […] ACT was measured at the bedside of the patients: a sample of blood was drawn, transferred into an appropriate test vial and the clotting time was measured. The second sample was taken 4 h after surgery and the coagulation was assessed in the same time (activated partial thromboplastin time, apTT; thrombin time, TT). Thrombin time (Thromboclotin™, Siemens, Marburg, Germany) and activated partial thromboplastin time (Platelin L; bioMerieux, France) were measured in a tube containing 0.129 M of trisodium citrate and determined using a coagulation device (MDA II coagulation analyzeer; bioMérieux). After surgery, a chest tube was inserted and a closed chest drainage system was attached to promote drainage of air and fluid. Bleeding was evaluated by the amount of blood collected in the chest tube of drainage over a period of 6 h after admission in intensive cares.

The subject of experiment [3] is blood coagulation. Nature of the experiment: Thrombin time (TT) in cardiac surgery patients. It counts as in vivo, human. Here is the method:
as §3

A short description of experiment [4]: Post-operative bleeding (chest tube drainage) in cardiac surgery patients. It counts as in vivo, human. To be noted: patient 6, after restoration of coagulation by protamine administration. As to the method: as §3
Experiment [5] deals with AMPK. In words: AMPK enzyme assay after immunoprecipitation from platelet extracts. It counts as cell-based. Particulars: human platelets treated with 0.1 U/ml thrombin. As to the method: AMPK was immunoprecipitated with 10 μg of α1-AMPK or α2-AMPK antibodies (Kinasource) from 50 μg of platelet extracts and assayed in a final volume of 50 μl Hepes 50 mM, pH 7.2, with 0.2 mM SAMS peptide (Substrate for AMP-activated Protein Kinase, Tocris Bioscience), 0.2 mM adenosine 5′-monophosphate (AMP), and 0.1 mM [^32P]MgATP (specific radioactivity: 1000 cpm/pmol; Perkin Elmer) at 30° C. Aliquots (10 μl) were removed and spotted onto Whatman P81 papers for measurement of ^32P incorporation. One unit of protein kinase activity corresponds to the incorporation of 1 nmol of phosphate into the appropriate peptide substrate per min under the assay conditions.
AMPK was immunoprecipitated with anti-α1- and anti-α2-AMPK antibodies prior to AMPK assay. The AMPK catalytic α1-subunit isoform accounted for the total AMPK activity in platelets (FIG. 1B), confirming the immunoblotting results.

The test system of experiment [6] is washed human platelets. In words: Platelet aggregation, light transmission (Chrono-Log Aggregometer). Type of experiment: cell-based. Particulars: 0.025 U/ml thrombin alone. Here is the method: as §1
Light transmission during thrombin-induced platelet aggregation in human and murine PRP was recorded with a Chrono-Log Aggregometer at 37° C., under stirring condition (1200 crpm). The platelet suspension was incubated with dimethyl sulfoxide (DMSO, vehicle) or STO-609 (10 μM, Tocris) for 2 min before the addition of the thrombin (+/−0.03 U/ml). CaCl2 2 mM was added prior to the agonists.
To evaluate the potential implication of CaMKKβ in platelet aggregation, washed human platelets were pre-incubated for 2 min with 10 μM STO-609, prior to treatment with thrombin or ADP.

Experiment [7] concerns myosin light chain (MLC) Ser 19 phosphorylation. Nature of the experiment: Western blot of MLC Ser19 phosphorylation in human platelets. Type of experiment: cell-based. To be noted: human platelets, 0.1 U/ml thrombin, significant after 2 min, persisted till 10 min. Here is the method: (§4) Washed human platelets (used in in vitro studies). Platelets were obtained from adult healthy volunteers in accordance with the Ethics Commission of our institution (Commission d'Ethique Biomédicale Hospitalo-Facultaire, Université catholique de Louvain). Whole blood was collected with butterfly needle 21G into Sodium Citrate 1:10 solution (S-monovette). Platelet-rich plasma (PRP) was obtained by 15 min centrifugation at 330 g. The platelets pellet was then washed in Tyrode modified buffer (135 mM NaCl, 12 mM NaHCO3, 1 mM Sodium Citrate, 2.9 mM KCl, 0.3 mM Na2HPO4, 1 mM MgCl2, 5 mM D-glucose, 10 mM Hepes, 0.35% bovine serum albumin (BSA), pH 7.4 at 37° C.) and resuspended to a density of 2.5 10^5 platelets/μl for the measurement of intracellular Ca^2+ or platelet aggregation. […]
(§5) Proteins were separated as described (Miranda et al. 2010. J Clin Invest 103(6): 879-887). […] Bound antibodies were detected by enhanced chemiluminescence (Thermofisher). […] Band intensities were quantified by scanning and processing image intensities with the program ImageJ (1.33 for Mac OS X). The quantification of immunoblots presented in results was obtained after normalization using the internal loading control.

Experiment [8] deals with VASP Thr 278 phosphorylation. In words: Western blot of VASP Thr278 phosphorylation in human platelets. Type of experiment: cell-based. To be noted: human platelets, 0.1 U/ml thrombin. As to the method:
as §4, §5
A general note: A western blot detects proteins with antibodies after separation by electrophoresis.

For experiment [9], the system named is cofilin Ser3 phosphorylation. Nature of the experiment: Western blot of cofilin Ser3 phosphorylation in human platelets. Type of experiment: cell-based. Particulars: human platelets, 0.1 U/ml thrombin, maximal at 1 min, persisted for 10 min. Here is the method: as §4, §5
For experiment [10], the system named is MLC phosphorylation in platelets from WT mice. In words: Western blot of MLC phosphorylation in murine platelets. Type of experiment: cell-based, mouse. To be noted: thrombin 0.05 U/ml. As to the method:
(§6) Eight- to 12-week-old mice were bled under sodium pentobarbital anesthesia (25-35 mg·kg^−1) from the retroorbital plexus. Mouse blood was collected in a 1/10 ACD solution (12 mM citric acid, 15 mM sodium citrate, 25 mM glucose) with ectonucleotidase apyrase (grade I) 0.5 U/ml. PRP was obtained by centrifugation at 800 g for 5 s followed by 5 min at 150 g. PRPs from three animals were pooled. Platelets were washed in Tyrode modified buffer and resuspended to a density of 2.5 10^5 platelets/μl for the measurement of platelet aggregation and for Western Blot analysis. At least three independent experiments were performed on PRP from different pools.
as §2, with “For each gel, control of loading was realized by immunoblotting using an anti-β-actin (1:10000; Santa Cruz Biotechnology), anti-gelsolin (Santa Cruz Biotechnology) or anti-GAPDH (1:1000; Cell Signalling) antibody after the membranes were stripped.” left out

Experiment [11] deals with VASP phosphorylation in platelets from WT mice. In words: Western blot of VASP phosphorylation in murine platelets. Particulars: thrombin 0.05 U/ml. It counts as cell-based, mouse. As to the method: as §6
as §2, with “For each gel, control of loading was realized by immunoblotting using an anti-β-actin (1:10000; Santa Cruz Biotechnology), anti-gelsolin (Santa Cruz Biotechnology) or anti-GAPDH (1:1000; Cell Signalling) antibody after the membranes were stripped.” left out

In experiment [12] the test system is cofilin phosphorylation in platelets from WT mice. Nature of the experiment: Western blot of cofilin phosphorylation in murine platelets. It counts as cell-based, mouse. Particulars: thrombin 0.05 U/ml. As to the method:
as §6
as §2, with “For each gel, control of loading was realized by immunoblotting using an anti-β-actin (1:10000; Santa Cruz Biotechnology), anti-gelsolin (Santa Cruz Biotechnology) or anti-GAPDH (1:1000; Cell Signalling) antibody after the membranes were stripped.” left out

The test system of experiment [13] is blood coagulation. In words: Activated coagulation time (ACT) in cardiac surgery patients. Type of experiment: in vivo, human. As to the method: as §3
The mark [14] stands for this setting: patient 6, after protamine injection.
[15] abbreviates: n = 29 patients, during surgery, after 47086±17766 UI UFH.
Setting [16] is: patient 1, during surgery, UFH 17000 units.
Where [17] appears, read: patient 2, during surgery, UFH 33000 units.
Setting [18] is: patient 3, during surgery, UFH 25500 units.
[19] abbreviates: patient 4, during surgery, UFH 10000 units.
[20] abbreviates: patient 5, during surgery, UFH 25000 units.
[21] abbreviates: patient 6, during surgery, UFH 41000 units.

“Also recorded” adds a separate entry of the source. A value given as a limit tells only on which side of the number the result lay.

For the compound `Nc1ncnc2c1ncn2[C@@H]1O[C@H](COP(=O)(O)OP(=O)(O)O)[C@@H](O)[C@H]1O` [ADP, adenosine diphosphate], the “Ser79 ACC phosphorylation induced by platelet agonist” value (from here on “Ser79 ACC phosphorylation induced”) in experiment [1] is “not observed; also recorded: not lead to ACC phosphorylation; also recorded: failed to increase”.

For the compound `CCCCC[C@H](O)/C=C/[C@@H]1[C@@H](C/C=C\CCCC(=O)O)[C@H]2CO[C@@H]1C2` [U46619], the “Ser79 ACC phosphorylation induced” value in [1] is on record as “not observed; also recorded: failed to increase”.

With collagen, in [1], the “Ser79 ACC phosphorylation induced” value is reported as “not observed; also recorded: failed to increase”.

Take protamine: the aPTT in [2] (setting [14]) was found to be 27 s. The compound further returned a TT in experiment [3] (setting [14]) of 30 s. Further, the Bleeding result in experiment [4] is “controlled”.

In the case of thrombin, in experiment [1], the “Ser79 ACC phosphorylation induced” value was “increased; also recorded: specifically induced”. The AMPK activation entry in experiment [5] is listed as “led to AMPK activation; also recorded: induces AMPK activation”. Further, the “platelet aggregation, % of aggregation” value in experiment [6] was determined as 69±3%. Besides, the “MLC Ser 19 phosphorylation induced by agonist” value in experiment [7] is listed as “increase”. Also, in experiment [8], the “VASP phosphorylation on Thr 278 induced by agonist” value was “significant increased phosphorylation”. In addition, in [9], the “cofilin phosphorylation in Ser3 induced by agonist” value is reported as “increase”. Also, the “phosphorylation of MLC induced by agonist” value in [10] is on record as “increase”. Further, the “phosphorylation of VASP induced by agonist” value in [11] was “increase”. For the same compound, in experiment [12], the “phosphorylation of cofilin induced by agonist” value is “increase”.

With unfractionated heparin [UFH], the “ACT, mean” value in experiment [13] (mean of patients 1-6, during surgery, after 25250±11000 UI UFH) amounted to 568 ± 65 s; in experiment [13] (setting [15]), 594 ± 100 s. Further, the ACT in experiment [13] (setting [16]) was 485 s; in experiment [13] (setting [17]) it was 523 s; in experiment [13] (setting [18]) it was 635 s; in [13] (setting [19]), 498 s; in experiment [13] (setting [20]), 698 s; in experiment [13] (setting [21]), 568 s. Also, the aPTT is greater than 180 s in experiment [2] (setting [16]); greater than 180 s in experiment [2] (patient 2, 4 h after surgery, UFH 33000 units); greater than 180 s in [2] (setting [18]); greater than 180 s in experiment [2] (setting [19]); greater than 180 s in [2] (setting [20]); greater than 180 s in experiment [2] (setting [21]). In addition, the “TT, mean” value in [3] (setting [15]) was greater than 120 s; in experiment [3] (patients 1-6, during surgery, after 25250±11000 UI UFH), greater than 120 s. Besides, the TT in [3] (setting [16]), in [3] (setting [17]), in [3] (setting [18]), in experiment [3] (setting [19]), in [3] (setting [20]) and in experiment [3] (setting [21]) was greater than 120 s throughout.
